According to DBAASP:
In brackets after ≈: the same amount, converted by molar mass.

Experiments:
Experiment in all cases: ≥ marks a high value that may be exact or a test limit, other limits are often not marked, values filed in µg/mL are converted to µM
[1] = test system: Trypanosoma cruzi
[2] = test system: Escherichia coli 23A
[3] = test system: Staphylococcus aureus 15A
[4] = test system: Escherichia coli ATCC 25922
[5] = test system: Pseudomonas aeruginosa 7A
[6] = test system: Staphylococcus aureus 6A
[7] = test system: Staphylococcus aureus ATCC 2592
[8] = test system: Escherichia coli 27A
[9] = test system: Candida albicans ATCC 2002
[10] = test system: Pseudomonas aeruginosa 3A
[11] = test system: Escherichia coli NCTC 10418
[12] = test system: Klebsiella sp.
[13] = test system: Acinetobacter sp.
[14] = test system: Proteus mirabilis
[15] = test system: Staphylococcus aureus NCTC 10571
[16] = test system: Klebsiella aerogenes
[17] = test system: Providencia stuartii
[18] = test system: Escherichia coli NCTC 8007
[19] = test system: Klebsiella pneumoniae ATCC 700603
[20] = test system: Acinetobacter baumannii ATCC 19606
[21] = test system: Escherichia coli K-12
[22] = test system: Staphylococcus aureus ATCC 43300
[23] = test system: Staphylococcus aureus JE2
[24] = test system: Candida albicans ATCC 90028
[25] = test system: Cryptococcus neoformans var. grubii H99
[26] = test system: Pseudomonas aeruginosa ATCC 27853
[27] = test system: Escherichia coli BL21
[28] = test system: Staphylococcus aureus CCRC 15211
[29] = test system: Salmonella typhimurium CCRC 12947
[30] = test system: Staphylococcus aureus CCRC 12652
[31] = test system: Lactococcus lactis MG1363
[32] = test system: Escherichia coli JM109
[33] = test system: Staphylococcus xylosus
[34] = test system: Vibrio parahaemolyticus CCRC 10806
[35] = test system: Salmonella enterica
[36] = test system: Citrobacter koseri
[37] = test system: Escherichia coli INV-a
[38] = test system: Pseudomonas aeruginosa
[39] = test system: Klebsiella pneumoniae CCRC 10694
[40] = test system: Streptococcus alactolyticus
[41] = test system: Aspergillus fumigatus
[42] = test system: Pasteurella multocida
[43] = test system: Mannheimia haemolytica Serovar 6
[44] = test system: Mannheimia haemolytica Serovar 1
[45] = test system: Bibersteinia trehalosi
[46] = test system: Mannheimia haemolytica Serovar 2
[47] = test system: Salmonella enterica subsp. arizonae
[48] = test system: Staphylococcus aureus
[49] = test system: Corynebacterium pseudotuberculosis ATCC 19410
[50] = test system: Klebsiella pneumoniae
[51] = test system: Pseudomonas aeruginosa PAO1

## CC[C@H](C)[C@H](NC(=O)[C@H](C)NC(=O)[C@H](CO)NC(=O)[C@@H](NC(=O)[C@H](C)NC(=O)[C@H](CC(N)=O)NC(=O)[C@@H](NC(=O)[C@H](C)NC(=O)[C@H](Cc1cnc[nH]1)NC(=O)[C@@H]1CCCN1C(=O)[C@@H](NC(=O)[C@H](CC(C)C)NC(=O)[C@H](CO)NC(=O)[C@H](CC(C)C)NC(=O)[C@@H](N)Cc1ccccc1)[C@@H](C)CC)[C@@H](C)CC)C(C)C)C(=O)N[C@@H](C)C(=O)N[C@@H](CCCCN)C(=O)N[C@@H](Cc1cnc[nH]1)C(=O)N[C@@H](CO)C(N)=O [FLSLIPHAINAVSAIAKHS]
[1]
  MIC: 15.1 µM (≈ 30 µg/mL)

## CC[C@H](C)[C@H](NC(=O)[C@@H](NC(=O)[C@@H]1CCCN1C(=O)[C@H](CCSC)NC(=O)[C@@H](N)Cc1ccccc1)[C@@H](C)CC)C(=O)NCC(=O)N[C@@H](CCCN=C(N)N)C(=O)N[C@@H](CC(C)C)C(=O)N[C@@H](CCSC)C(=O)N[C@@H](CO)C(=O)NCC(=O)N[C@@H](CO)C(=O)N[C@@H](CC(C)C)C(=O)O [FMPIIGRLMSGSL]
[2]
  MIC: 5.28 µM (≈ 7.5 µg/mL)
[3]
  MIC: 0.703 µM (≈ 1 µg/mL)
[4]
  MIC: 5.28 µM (≈ 7.5 µg/mL)
[5]
  MIC: 2.64 µM (≈ 3.75 µg/mL)
[6]
  MIC: 2.64 µM (≈ 3.75 µg/mL)
[7]
  MIC: 1.34 µM (≈ 1.9 µg/mL)
[8]
  MIC: 10.6 µM (≈ 15 µg/mL)
[9]
  MIC: 21.1 µM (≈ 30 µg/mL)
[10]
  MIC: 2.64 µM (≈ 3.75 µg/mL)

## CSCC[C@H](NC(=O)[C@H](CC(N)=O)NC(=O)[C@H](CCCN=C(N)N)NC(=O)[C@H](CCC(N)=O)NC(=O)[C@H](Cc1c[nH]c2ccccc12)NC(=O)[C@H](CCC(N)=O)NC(=O)[C@@H](N)Cc1ccccc1)C(=O)N[C@@H](CCCN=C(N)N)C(=O)N[C@@H](CCCCN)C(=O)N[C@H](C(=O)N[C@@H](CCCN=C(N)N)C(=O)NCC(=O)N1CCC[C@H]1C(=O)N1CCC[C@H]1C(=O)N[C@H](C(=O)N[C@@H](CO)C(=O)O)C(C)C)C(C)C [FQWQRNMRKVRGPPVS]
[11]
  MIC: ≥ 500 µM
[12]
  MIC: ≥ 1000 µM
[13]
  MIC: 2 µM (≈ 3.97 µg/mL)
[14]
  MIC: ≥ 1000 µM
[15]
  MIC: ≥ 500 µM
[16]
  MIC: ≥ 1000 µM
[17]
  MIC: ≥ 1000 µM
[18]
  MIC: ≥ 500 µM

## CC[C@H](C)[C@H](NC(=O)[C@@H](NC(=O)[C@H](CO)NC(=O)[C@H](C)NC(=O)[C@@H](NC(=O)[C@H](CCCCN)NC(=O)[C@H](CCCCN)NC(=O)[C@@H](NC(=O)[C@@H](NC(=O)[C@H](CCC(=O)O)NC(=O)[C@H](Cc1ccccc1)NC(=O)[C@H](CC(C)C)NC(=O)CN)C(C)C)[C@@H](C)CC)C(C)C)C(C)C)C(=O)NCC(=O)NCC(=O)N[C@@H](CC(C)C)C(=O)O [GLFEVIKKVASVIGGL]
[19]
  MIC: > 19.6 µM
[20]
  MIC: > 19.6 µM
[21]
  MIC: 19.6 µM (≈ 32 µg/mL)
[4]
  MIC: > 19.6 µM
[22]
  MIC: 19.6 µM (≈ 32 µg/mL)
[23]
  MIC: ≥ 39.3 µM
[24]
  MIC: 19.6 µM (≈ 32 µg/mL)
[25]
  MIC: 9.82 µM (≈ 16 µg/mL)
[26]
  MIC: > 19.6 µM

## CC[C@H](C)[C@H](N)C(=O)N[C@@H](CC(N)=O)C(=O)N[C@@H](Cc1c[nH]c2ccccc12)C(=O)N[C@@H](CCCCN)C(=O)NCC(=O)N[C@H](C(=O)N[C@@H](C)C(=O)N[C@@H](C)C(=O)N[C@@H](CCSC)C(=O)N[C@@H](C)C(=O)N[C@@H](CCCCN)C(=O)N[C@@H](CCCCN)C(=O)N[C@@H](CC(C)C)C(=O)N[C@@H](CC(C)C)C(N)=O)[C@@H](C)CC [INWKGIAAMAKKLL]
[27]
  MIC: 5.14 µM (≈ 8 µg/mL)
[28]
  MIC: ≥ 41.1 µM
[29]
  MIC: 20.6 µM (≈ 32 µg/mL)
[30]
  MIC: 20.6 µM (≈ 32 µg/mL)
[31]
  MIC: 2.5 µM (≈ 3.89 µg/mL)
[4]
  MIC: 4.82 µM (≈ 7.5 µg/mL)
[32]
  MIC: 5.14 µM (≈ 8 µg/mL)
[33]
  MIC: 1.93 µM (≈ 3 µg/mL)
[34]
  MIC: 20.6 µM (≈ 32 µg/mL)
[7]
  MIC: 2.38 µM (≈ 3.7 µg/mL)
[35]
  MIC: 20.6 µM (≈ 32 µg/mL)
[36]
  MIC: 2.57 µM (≈ 4 µg/mL)
[37]
  MIC: 8 µM (≈ 12.4 µg/mL)
[38]
  MIC: 164 µM (≈ 256 µg/mL)
[39]
  MIC: ≥ 41.1 µM
[40]
  MIC: 10.3 µM (≈ 16 µg/mL)
[9]
  MIC: 2.38 µM (≈ 3.7 µg/mL)

## CC[C@H](C)[C@H](NC(=O)[C@H](Cc1cnc[nH]1)NC(=O)[C@@H](NC(=O)[C@@H](NC(=O)[C@H](CCCCN)NC(=O)[C@H](CCCN=C(N)N)NC(=O)[C@@H](NC(=O)[C@@H](NC(=O)[C@H](CCCN=C(N)N)NC(=O)[C@@H](N)CCCN=C(N)N)[C@@H](C)CC)[C@@H](C)CC)[C@@H](C)CC)[C@@H](C)CC)C(=O)N[C@H](C(=O)N[C@@H](CCCCN)C(=O)N[C@@H](CCCCN)C(N)=O)[C@@H](C)CC [RRIIRKIIHIIKK]
[41]
  MIC: 3.44 µM (≈ 5.8 µg/mL)
[42]
  MIC: 11.9 µM (≈ 20 µg/mL)
[43]
  MIC: 2.49 µM (≈ 4.2 µg/mL)
[44]
  MIC: 4.92 µM (≈ 8.3 µg/mL)
[45]
  MIC: 11.9 µM (≈ 20 µg/mL)
[46]
  MIC: 2.73 µM (≈ 4.6 µg/mL)
[47]
  MIC: 11.9 µM (≈ 20 µg/mL)
[48]
  MIC: > 11.9 µM
[49]
  MIC: 11.9 µM (≈ 20 µg/mL)
[50]
  MIC: > 11.9 µM
[51]
  MIC: 0.356 µM (≈ 0.6 µg/mL)
